According to the supplement of paper PMC10307832:

Legend:
Assay in all cases: relative viability (nuclei count vs DMSO), 5 days (fraction); higher = more cells survive
[1] = compound: CC1=C(C(=NN1)C)CC2=C(C3=C(S2)N(C(=O)N(C3=O)C)CC(C)C)C(=O)N4C[C@@H](CO4)O
Method in brief: (§1)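 Lung cancer cell lines in 1536-well plates were exposed by pinning to five library-drug doses (not always all listed) √10 apart, following an overnight hold at 37 °C. MetaXpress counted Hoechst-stained nuclei from 4× images taken after 5 days without medium change. Viability is the median ratio of treated-well to vehicle-well nuclei across plates. Plates required control CV below 25% and at least one doubling.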

IDH-C35 = compound: Cc1ccccc1C(C(=O)NC1CCCCC1)N(C(=O)Cn1ccnc1C)c1cccc(F)c1 [IDH-C35]
Method in brief: as §1

[2] = compound: CC1=C(C(=NN1)C)CC2=C(C3=C(S2)N(C(=O)N(C3=O)C)CC(C)C)C(=O)N4C[C@@H](CO4)O + Nc1ncn([C@H]2C[C@H](O)[C@@H](CO)O2)c(=O)n1 [Decitabine] (partner 2 µM)
Method in brief: (§2)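 Relative viability equals treated-well nuclei counts divided by vehicle-well nuclei counts. Counts came from 4× images of lung cancer cell lines grown in 1536-well plates for 5 days after pin-tool dosing on the day after seeding. Dosing used one drug alone or a fixed anchor-drug dose plus five library-drug doses (not always all listed) in √10 steps, and values are medians of duplicate plates.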

IDH-C35 + Linsitinib = compound: Cc1ccccc1C(C(=O)NC1CCCCC1)N(C(=O)Cn1ccnc1C)c1cccc(F)c1 [IDH-C35] + C[C@]1(O)C[C@@H](c2nc(-c3ccc4ccc(-c5ccccc5)nc4c3)c3c(N)nccn32)C1 [Linsitinib] (partner 1 µM)
Method in brief: as §2

UMC-11
relative viability ([1]; 0.0025 µM): 1.08
relative viability ([1]; 0.007906 µM): 1.04
relative viability ([1]; 0.025 µM): 0.974
relative viability ([1]; 0.07906 µM): 0.993
relative viability ([1]; 0.25 µM): 1.18
relative viability (IDH-C35; 0.08 µM): 1.03
relative viability (IDH-C35; 0.253 µM): 0.975
relative viability (IDH-C35; 0.8 µM): 0.986
relative viability (IDH-C35; 2.53 µM): 0.951
relative viability (IDH-C35; 8 µM): 1.02
relative viability ([2]; first compound 0.0025 µM): 0.54
relative viability ([2]; first compound 0.007906 µM): 0.506
relative viability ([2]; first compound 0.025 µM): 0.38
relative viability ([2]; first compound 0.07906 µM): 0.483
relative viability ([2]; first compound 0.25 µM): 0.491
relative viability (IDH-C35 + Linsitinib; first compound 0.08 µM): 0.942
relative viability (IDH-C35 + Linsitinib; first compound 0.253 µM): 1.06
relative viability (IDH-C35 + Linsitinib; first compound 0.8 µM): 1.04
relative viability (IDH-C35 + Linsitinib; first compound 2.53 µM): 1.04
relative viability (IDH-C35 + Linsitinib; first compound 8 µM): 0.971
